Here are results for 30 compounds from patent US9751854B2 (Millennium Pharmaceuticals, Inc., priority 2014, dated 2017).

The target of one assay is human VPS34 (Homo sapiens (Human), UniProt Q8NEB9). Description: Human VPS34 enzyme assay (Adapta TR-FRET ADP detection). The class given is biochemical. The arrangement: Percent Inhibition: dose or concentration left out as unconfirmed.
Chain of human VPS34 (Q8NEB9 whole entry): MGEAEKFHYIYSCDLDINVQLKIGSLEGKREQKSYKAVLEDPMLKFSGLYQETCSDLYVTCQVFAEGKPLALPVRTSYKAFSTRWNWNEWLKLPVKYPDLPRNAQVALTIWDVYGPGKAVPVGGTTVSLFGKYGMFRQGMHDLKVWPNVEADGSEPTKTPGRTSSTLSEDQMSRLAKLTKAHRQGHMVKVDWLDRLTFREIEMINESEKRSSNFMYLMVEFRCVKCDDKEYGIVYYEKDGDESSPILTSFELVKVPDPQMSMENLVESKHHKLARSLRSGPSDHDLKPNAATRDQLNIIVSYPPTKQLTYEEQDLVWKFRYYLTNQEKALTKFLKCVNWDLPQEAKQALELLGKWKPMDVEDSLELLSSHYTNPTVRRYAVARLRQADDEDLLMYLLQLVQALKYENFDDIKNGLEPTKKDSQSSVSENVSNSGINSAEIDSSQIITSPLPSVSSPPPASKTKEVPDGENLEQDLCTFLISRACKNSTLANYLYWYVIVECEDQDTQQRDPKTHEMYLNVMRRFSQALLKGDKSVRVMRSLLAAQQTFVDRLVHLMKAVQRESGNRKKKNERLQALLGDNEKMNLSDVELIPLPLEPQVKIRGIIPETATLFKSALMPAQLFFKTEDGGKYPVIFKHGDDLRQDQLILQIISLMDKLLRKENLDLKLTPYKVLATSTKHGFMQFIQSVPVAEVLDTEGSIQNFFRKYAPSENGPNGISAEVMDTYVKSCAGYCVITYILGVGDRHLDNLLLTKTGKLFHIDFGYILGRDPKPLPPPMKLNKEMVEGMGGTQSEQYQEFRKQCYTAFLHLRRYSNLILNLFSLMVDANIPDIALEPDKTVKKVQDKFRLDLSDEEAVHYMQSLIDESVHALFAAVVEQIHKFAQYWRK
Conditions: not given
For the compound `CC(=O)Nc1cc(-c2cc(N(C)S(C)(=O)=O)c(C)[n+]([O-])c2)ccn1` [Compound I-129, N-(4-{6-methyl-5-[methyl(methylsulfonyl)amino]-1-oxidopyridin-3-yl}pyridin-2-yl)acetamide], the “Percent Inhibition” value came out at 100%.

The assay is the same for the next values; noted with them: IC50 range class.
On to `CCN(CC)S(=O)(=O)c1cc(-c2ccnc(NC(C)=O)c2)cnc1N` [Compound I-124, N-[6-amino-5-(diethylsulfamoyl)-3,4′-bipyridin-2′-yl]acetamide], for which the IC50 (in general, the concentration that gives 50% inhibition) was less than 0.01 µM.
As to `CC(=O)Nc1cc(-c2cnc(N)c(C(=O)N3Cc4ccccc4C3)c2)ccn1` [Compound I-125], the IC50 is less than 0.01 µM.
With `CC(=O)Nc1cc(-c2cnc(N)c(S(=O)(=O)CCc3ccccc3)c2)ccn1` [Compound I-126, N-[6-amino-5-[(2-phenylethyl)sulfonyl]-3,4′-bipyridin-2′-yl]acetamide], the IC50 was in the range of 0.05 to 0.1 µM.
Compound `COc1ncc(-c2ccnc(NC(C)=O)c2)cc1C(=O)N(C)C` [Compound I-127, 2′-acetamido-6-methoxy-N,N-dimethyl-3,4′-bipyridine-5-carboxamide] came in with an IC50 of 0.05 to 0.1 µM.
In the case of `CC(=O)Nc1cc(-c2cc(N(C)S(C)(=O)=O)c(C)[n+]([O-])c2)ccn1` [Compound I-129, N-(4-{6-methyl-5-[methyl(methylsulfonyl)amino]-1-oxidopyridin-3-yl}pyridin-2-yl)acetamide], the IC50 was more than 0.1 µM.
`CC(=O)Nc1cc(-c2cnc(C)c(NS(=O)(=O)c3ccc(C)cc3F)c2)c(C)cn1` [Compound I-130, N-(5-{[(2-fluoro-4-methylphenyl)sulfonyl]amino}-5′,6-dimethyl-3,4′-bipyridin-2′-yl)acetamide] showed an IC50 of 0.05 to 0.1 µM.
`CC(=O)Nc1cc(-c2cnc(C)c(NS(=O)(=O)c3ccc(C(C)(C)C)cc3)c2)ccn1` [Compound I-131, N-(5-{[(4-tert-butylphenyl)sulfonyl]amino}-6-methyl-3,4′-bipyridin-2′-yl)acetamide] had an IC50 of less than 0.01 µM.
Take `CNc1ncc(-c2ccnc(NC(C)=O)c2)cc1N1CCCS1(=O)=O` [Compound I-132, N-[5-(1,1-dioxidoisothiazolidin-2-yl)-6-(methylamino)-3,4′-bipyridin-2′-yl]acetamide]: the IC50 was less than 0.01 µM.
Same read-out and setting: under `CC(=O)Nc1cc(-c2cnc(N)c(N(C)S(C)(=O)=O)c2)ccn1` [Compound I-133, N-{6-amino-5-[methyl(methylsulfonyl)amino]-3,4′-bipyridin-2′-yl}acetamide] stands less than 0.01 µM; under `CC(=O)Nc1cc(-c2cnc(C)c(NS(=O)(=O)c3ccc(C(C)C)cc3)c2)ccn1` [Compound I-134, N-(5-{[(4-isopropylphenyl)sulfonyl]amino}-6-methyl-3,4′-bipyridin-2′-yl)acetamide], 0.01 to 0.05 µM; under `CC(=O)Nc1cc(-c2cnc3ncn(CC4CC4)c3c2)ccn1` [Compound I-135, N-{4-[1-(cyclopropylmethyl)-1H-imidazo[4,5-b]pyridin-6-yl]pyridin-2-yl}acetamide], more than 0.1 µM.
In the case of `CC(=O)Nc1cc(-c2cnc(N)c(C(=O)Nc3ccccc3Cl)c2)ccn1` [Compound I-136, 2′-acetamido-6-amino-N-(2-chlorophenyl)-3,4′-bipyridine-5-carboxamide], the IC50 is less than 0.01 µM.
On the same count and under the same terms, the same measure for `CC(=O)Nc1cc(-c2cncc(S(=O)(=O)N(C)C)c2)ccn1` [Compound I-137, N-[5-(dimethylsulfamoyl)-3,4′-bipyridin-2′-yl]acetamide]: 0.01 to 0.05 µM.
Same read-out and setting: the same measure for `CC(=O)Nc1cc(-c2cnc(N)c(S(=O)(=O)Cc3ccc(F)cc3F)c2)ccn1` [Compound I-138, N-[6-amino-5-[(2,4-difluorobenzyl)sulfonyl]-3,4′-bipyridin-2′-yl]acetamide]: 0.01 to 0.05 µM.
In turn, `CC(=O)Nc1cc(-c2cncc(N)c2)ccn1` [Compound I-139, N-(5-amino-3,4′-bipyridin-2′-yl)acetamide] registered an IC50 of more than 0.1 µM.
The compound `CC(=O)Nc1cc(-c2cnc3[nH]ccc3c2)ccn1` [Compound I-140, N-[4-(1H-pyrrolo[2,3-b]pyridin-5-yl)pyridin-2-yl]acetamide] returned an IC50 of 0.01 to 0.05 µM.
The same measure, in the same setting: under `CNc1ncc(-c2ccnc(NC(C)=O)c2)cc1N(CC1CC1)S(C)(=O)=O` [Compound I-141] stands less than 0.01 µM.
In the case of `COc1cc(C)ccc1S(=O)(=O)Nc1cc(-c2ccnc(NC(C)=O)c2)cnc1C` [Compound I-142, N-(5-{[(2-methoxy-4-methylphenyl)sulfonyl]amino}-6-methyl-3,4′-bipyridin-2′-yl)acetamide], the IC50 was less than 0.01 µM.
The same measure, in the same setting: the same measure for `CC(=O)Nc1cc(-c2cnc(C)c(NS(=O)(=O)c3cc(C(F)(F)F)ccc3F)c2)ccn1` [Compound I-143, N-[5-({[2-fluoro-5-(trifluoromethyl)phenyl]sulfonyl}amino)-6-methyl-3,4′-bipyridin-2′-yl]acetamide]: less than 0.01 µM; for `CC(=O)Nc1cc(-c2cnc(C)c(NS(=O)(=O)c3ccccc3F)c2)ccn1` [Compound I-144, N-[5-{[(2-fluorophenyl)sulfonyl]amino}-6-methyl-3,4′-bipyridin-2′-yl)acetamide]: less than 0.01 µM.
`CCOCCS(=O)(=O)c1cc(-c2ccnc(NC(C)=O)c2)cnc1N` [Compound I-145, N-{6-amino-5-[(2-ethoxyethyl)sulfonyl]-3,4′-bipyridin-2′-yl}acetamide] came in with an IC50 of 0.05 to 0.1 µM.
The compound `COC(=O)Nc1cc(-c2cnc(C)c(N3CCCS3(=O)=O)c2)ccn1` [Compound I-146, methyl [5-(1,1-dioxidoisothiazolidin-2-yl)-6-methyl-3,4′-bipyridin-2′-yl]carbamate] registered an IC50 of 0.01 to 0.05 µM.
The compound `CNc1ncc(-c2ccnc(NC(C)=O)c2)cc1N(C)S(C)(=O)=O` [Compound I-147, N-{6-(methylamino)-5-[methyl(methylsulfonyl)amino]-3,4′-bipyridin-2′-yl}acetamide] registered an IC50 of less than 0.01 µM.
As for `CC(=O)Nc1cc(-c2cnc(N)c(S(=O)(=O)NCCc3ccccc3)c2)ccn1` [Compound I-148, N-{6-amino-5-[(2-phenylethyl)sulfamoyl]-3,4′-bipyridin-2′-yl}acetamide], the IC50 lay within 0.01 to 0.05 µM.
Same read-out and setting: under `CC(=O)Nc1cc(-c2cnc(N)c(C(=O)N(C)C)c2)ccn1` [Compound I-149, 2′-acetamido-6-amino-N,N-dimethyl-3,4′-bipyridine-5-carboxamide] stands 0.01 to 0.05 µM.
On the same count and under the same terms, the same measure for `CC(=O)Nc1cc(-c2cnc(C)c(NS(=O)(=O)c3c(F)cccc3F)c2)ccn1` [Compound I-150, N-(5-{[(2,6-difluorophenyl)sulfonyl]amino]-6-methyl-3,4′-bipyridin-2′-yl)acetamide]: less than 0.01 µM; for `CC(=O)Nc1cc(-c2cnc3c(c2)c(S(=O)(=O)N2CCCC2)cn3C)ccn1` [Compound I-151, N-{4-[1-methyl-3-(pyrrolidin-1-ylsulfonyl)-1H-pyrrolo[2,3-b]pyridin-5-yl]pyridin-2-yl}acetamide]: 0.01 to 0.05 µM; for `CC(=O)Nc1cc(-c2cnc(N)c(C(=O)N3CCOCC3)c2)ccn1` [Compound I-152, N-[6-amino-5-(morpholin-4-ylcarbonyl)-3,4′-bipyridin-2′-yl]acetamide]: 0.01 to 0.05 µM.
The compound `CC(=O)Nc1cc(-c2cnc(C)c(NS(=O)(=O)c3ccc(Cl)cc3)c2)ccn1` [Compound I-154, N-(5-{[(4-chlorophenyl)sulfonyl]amino}-6-methyl-3,4′-bipyridin-2′-yl)acetamide] returned an IC50 of less than 0.01 µM.
`CC(=O)Nc1cc(-c2cnc(C)c(NS(=O)(=O)c3cccc(F)c3)c2)ccn1` [Compound I-155, N-(5-{[(3-fluorophenyl)sulfonyl]amino}-6-methyl-3,4′-bipyridin-2′-yl)acetamide] came in with an IC50 of less than 0.01 µM.
